Measurements as given in patent US20260262641A1 (priority 2023, published 2026).

Tests used:
[1] = system: ground pearl (Margarodes spp); experiment: Field trial in kikuyu turf, control of ground pearl, Robina (Example 6); format: in vivo; details: 56 DAA3 (head); 0=dead; 10=best quality/color; product rate mL/ha: Meridian 1200, Kohinor 350 SC 1500, Fenpyroximate 50 SC 4000; each with Stamina B 20000
[2] = system: couch mite (Aceria cynodoniensis); experiment: Field trial in Santa Ana couch turfgrass, control of couch mite (Example 3); format: in vivo
Method: A field trial was conducted in Santa Ana couch turfgrass, to evaluate fenpyroximate for control of couch mite (Aceria cynodoniensis). The trial was located at Terrey Hills Golf and Country Club, New South Wales (−33.668, 151.217). […] All treatments were applied using a hand boom fitted with XR11004 nozzles and in a spray volume of 430 L/ha.
The incidence of couch mite damage, to the terminal growth point (known as witches' broom) was assessed 42 days after the second application. Turf biomass and vigor were assessed at the same timing on a 0 to 10 rating scale, along with NDVI using a Greenseeker.
(§1) All data was statistically analyzed using analysis of variance and Fisher's protected least significant different test (Fishers LSD). The level of significance for all tests was P<0.05.

[3] = system: redlegged earth mite (H. destructor; RLEM); experiment: Field trial in canola, pre- or post-emergent control of RLEM (Example 5); format: in vivo, Halotydeus destructor
Method: A field trial was conducted in canola cv. Garrison, to evaluate fenpyroximate for control of redlegged earth mite (H. destructor; RLEM) as a pre- or post-emergent application. The trial was located at Beverley, Western Australia (−32.2248085, 117.0268493). The canola was sown on 13th June 2023. […] All treatments were applied using a hand boom fitted with flat fan nozzles in a spray volume of 100 L/ha.
The density of RLEM was assessed 33 days after the second application timing by counting the number of mites per plant.
as §1

[4] = system: redlegged earth mite (H. destructor; RLEM); experiment: whole plant or invertebrate
Method: On the 14th of May 2022, H. destructor were collected from capeweed (Arctotheca calendula) in South Morang, Victoria (−37.625, 145.110), a site with no known history of insecticide application. Mites were collected via suction using a Stihl SH55 blower vacuum, placed in plastic containers with paper towel and vegetation, and transported back to the laboratory, where they were stored at 4° C. until testing.
Serial dilutions were prepared for each insecticide (Table 1), with the addition of a non-ionic surfactant (Tween 20) at 0.01% to aid the spread of the insecticide and ensure even coating. […] Nine concentrations of pyridaben ranging from the proposed field rate of 1480 mL diluted in 100 L of water (1998 mg a.i./L) to 1×10^−5 were serially diluted and tested along with a water control. Eight concentrations of omethoate, ranging from 10 times the field rate of 100 mL diluted in 100 L of water (290 mg a.i./L) to 1×10^−5, were tested along with a water control. Seven concentrations of bifenthrin, ranging from 10 times the field rate of 40 mL diluted in 100 L of water (100 mg a.i./L) to 1×10^−5, were tested along with a water control. For each insecticide concentration tested, approximately 10 mL of solution was poured into a 15 mL plastic vial and swirled to ensure a complete coating, with excess liquid removed. Six vials were coated per concentration and were left to dry overnight. Control vials were treated in the same way, except water (with the addition of 0.01% Tween) was used.
Approximately eight individual H. destructor were then placed into each vial along with 2-3 leaves of common vetch (Vicia sativa), which provided food and humidity. Vials were then sealed with a screw lid and placed in a controlled temperature cabinet at 18° C. After 24-hours exposure, mites were scored as alive (moving freely), incapacitated (inhibited movement), or dead (no movement over a 5 second period).
Dose-response curves were generated by plotting percentage mortality against log concentration. […] Logistic regression is well suited for the analysis of binary response data (e.g., dead/alive). All analyses were conducted using R version 3.3.1 (R Development Core Team 2022).

[5] = Halotydeus destructor, 24 h, read-out: % RLEM mortality

SMILES: Cc1nn(C)c(Oc2ccccc2)c1C=NOCc1ccc(C(=O)OC(C)(C)C)cc1 [Fenpyroximate]
- Turf vigor (0-10), 56 DAA3 [1]: 6.2 a
- Biomass and vigor (0-10), 42 DAA2 ([2]; 42 DAA2, 0 to 10 rating scale, product rate mL/ha: Prophesy 500, Thumper 2000 (+ BS 1000 0.25% v/v), Fenpyroximate 50 SC 4000): 4.8
- NDVI, 42 DAA2 ([2]; 42 DAA2, Greenseeker, product rate mL/ha: Prophesy 500, Thumper 2000 (+ BS 1000 0.25% v/v), Fenpyroximate 50 SC 4000): 0.63
- % Incidence mite damage, 42 DAA2 ([2]; 42 days after second application, product rate mL/ha: Prophesy 500, Thumper 2000 (+ BS 1000 0.25% v/v), Fenpyroximate 50 SC 4000 (200 g ai/ha)): 47.0%
- Biomass and vigor (0-10), Pre-spray ([2]; Pre-spray (baseline), 0 to 10 rating scale): 4.1 a
- NDVI, Pre-spray ([2]; Pre-spray (baseline), Greenseeker): 0.55 a
- % Incidence mite damage, Pre-spray ([2]; Pre-spray (baseline), witches' broom): 95.8 a %
- incidence of couch mite damage (in words) ([2]; versus untreated, P<0.05): significantly reduced
- turf biomass and vigor and NDVI (in words) ([2]; versus untreated, P<0.05): significantly improved
- % Control (33 DAA2) ([3]; application timing A (post-sow pre-emergent), product rate 1000 mL/ha): 67%
- % Control (33 DAA2) ([3]; application timing A (post-sow pre-emergent), product rate 2000 mL/ha): 61%
- % Control (33 DAA2) ([3]; application timing B (early post-emergent, 1 to 2 leaf canola), product rate 1000 mL/ha): 63%
- % Control (33 DAA2) ([3]; application timing B (early post-emergent, 1 to 2 leaf canola), product rate 2000 mL/ha): 68%
- concentrations at which mite mortality was observed ([4]; 24 hours exposure): greater than 50 mg a.i./L
- mortality at 0.01 µg/mL [4, 5]: 0%
- mortality at 0.1 µg/mL [4, 5]: 0%
- mortality at 1 µg/mL [4, 5]: 0%
- mortality at 10 µg/mL [4, 5]: 0%
- mortality at 30 µg/mL [4, 5]: 0%
- mortality at 50 µg/mL [4, 5]: 6%
- mortality at 100 µg/mL [4, 5]: 30.5%
- mortality at 300 µg/mL [4, 5]: 93.8%
- mortality at 500 µg/mL [4, 5]: 100%
- mortality at 1000 µg/mL [4, 5]: 98.7%
- control of RLEM ([4]; concentration of 300 g a.i./L (as printed in text)): 93.8%
- control of RLEM ([4]; concentration of 500 g a.i./L (as printed in text)): 100%
- efficacy against RLEM (in words) ([4]; laboratory bioassay, 24 hours exposure): highly efficacious
